In patent US12514929B2, “Deformable nano-scale vehicles (DNVS) for trans-blood brain barrier, trans-mucosal, and transdermal drug delivery” (The Regents of the University of California, priority 2017, dated 2026):

Legend:
[1] = Pharmacokinetics of galangin and progalangin in mice; format: in vivo; settings: at 1 h
Text: (§1) Progalangin reduced Aβ40 as well as Aβ42 levels (FIG. 19B).

Aβ42 = test: Effect of galangin and progalangin on Aβ42; design: species or system mice; settings: mouse, in vivo
Text: as §1

Aβ40 = test: Effect of galangin and progalangin on Aβ40; design: species or system mice; settings: mouse, in vivo
Text: as §1

O=c1c(O)c(-c2ccccc2)oc2cc(O)cc(O)c12 [Galangin, galangin]
Brain Cmax [1]: approximately 50 ng/g | Aβ42 levels (Aβ42): no effect | Aβ40 levels (Aβ40): reduce Aβ40 levels
